Source: PubChem BioAssay (NCI)
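Five compound concentrations were applied to cells in 96-well plates for 48 hours; endpoints were derived by simple linear interpolation of the resulting dose-response curve. GI50 = concentration required for 50% inhibition of growth. The concentration for full growth arrest is given as TGI.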

Columns and labels:
Assay in all cases: inhibition of tumour cell growth, NCI panel, 48 h
SK-MEL-28 melanoma = tested on: SK-MEL-28 melanoma
OVCAR-4 ovarian = tested on: OVCAR-4 ovarian
CAKI-1 renal = tested on: CAKI-1 renal
M14 melanoma = tested on: M14 melanoma
KM12 colon = tested on: KM12 colon
HCC-2998 colon = tested on: HCC-2998 colon
MDA-MB-435 = tested on: MDA-MB-435
HT29 colon = tested on: HT29 colon
TK-10 renal = tested on: TK-10 renal
A498 renal = tested on: A498 renal
SF-539 CNS = tested on: SF-539 CNS
HOP-62 NSCLC = tested on: HOP-62 NSCLC
SNB-75 CNS = tested on: SNB-75 CNS
NCI-H522 lung = tested on: NCI-H522 lung
SK-OV-3 ovarian = tested on: SK-OV-3 ovarian
SW-620 colon = tested on: SW-620 colon
SN12C renal = tested on: SN12C renal
SNB-19 CNS = tested on: SNB-19 CNS
U251 CNS = tested on: U251 CNS
786-0 renal = tested on: 786-0 renal
ACHN renal = tested on: ACHN renal
SK-MEL-5 melanoma = tested on: SK-MEL-5 melanoma
OVCAR-8 ovarian = tested on: OVCAR-8 ovarian
UACC-62 melanoma = tested on: UACC-62 melanoma
SK-MEL-2 melanoma = tested on: SK-MEL-2 melanoma
A549 NSCLC = tested on: A549 NSCLC
EKVX NSCLC = tested on: EKVX NSCLC
OVCAR-5 ovarian = tested on: OVCAR-5 ovarian
MCF7 breast = tested on: MCF7 breast
MALME-3M melanoma = tested on: MALME-3M melanoma
HOP-92 NSCLC = tested on: HOP-92 NSCLC
HCT-15 colon = tested on: HCT-15 colon
HL-60(TB) leukemia = tested on: HL-60(TB) leukemia
RXF 393 renal = tested on: RXF 393 renal
NCI-H226 lung = tested on: NCI-H226 lung
OVCAR-3 ovarian = tested on: OVCAR-3 ovarian
SF-295 CNS = tested on: SF-295 CNS
NCI-H460 lung = tested on: NCI-H460 lung
K-562 leukemia = tested on: K-562 leukemia
PC-3 prostate = tested on: PC-3 prostate
RPMI-8226 leukemia = tested on: RPMI-8226 leukemia
NCI/ADR-RES ovarian = tested on: NCI/ADR-RES ovarian
COLO 205 colon = tested on: COLO 205 colon
DU-145 prostate = tested on: DU-145 prostate
HCT-116 colon = tested on: HCT-116 colon
MOLT-4 leukemia = tested on: MOLT-4 leukemia
BT-549 breast = tested on: BT-549 breast
CCRF-CEM leukemia = tested on: CCRF-CEM leukemia
HS 578T breast = tested on: HS 578T breast
SR leukemia = tested on: SR leukemia
UO-31 renal = tested on: UO-31 renal
UACC-257 melanoma = tested on: UACC-257 melanoma
SF-268 CNS = tested on: SF-268 CNS
MDA-MB-231 breast = tested on: MDA-MB-231 breast
LOX IMVI melanoma = tested on: LOX IMVI melanoma
T-47D breast = tested on: T-47D breast
NCI-H23 lung = tested on: NCI-H23 lung
IGROV1 ovarian = tested on: IGROV1 ovarian

C=C[C@@H]1CCC/C=C/[C@@H]2C[C@H](O)C[C@H]2[C@H](O)/C=C/C(=O)O1
GI50 (SK-MEL-28 melanoma): 340 nM
TGI (SK-MEL-28 melanoma): 1200 nM
GI50 (OVCAR-4 ovarian): 407 nM
TGI (OVCAR-4 ovarian): > 94600 nM
GI50 (CAKI-1 renal): 1890 nM
TGI (CAKI-1 renal): > 50300 nM
GI50 (M14 melanoma): 387 nM
TGI (M14 melanoma): > 28900 nM
GI50 (KM12 colon): 350 nM
TGI (KM12 colon): 1350 nM
GI50 (HCC-2998 colon): 409 nM
TGI (HCC-2998 colon): 2920 nM
GI50 (MDA-MB-435): 435 nM
TGI (MDA-MB-435): > 100000 nM
GI50 (HT29 colon): 342 nM
TGI (HT29 colon): 1600 nM
GI50 (TK-10 renal): 554 nM
TGI (TK-10 renal): 19800 nM
GI50 (A498 renal): 261 nM
TGI (A498 renal): 763 nM
GI50 (SF-539 CNS): 650 nM
TGI (SF-539 CNS): > 100000 nM
GI50 (HOP-62 NSCLC): 1330 nM
TGI (HOP-62 NSCLC): > 100000 nM
GI50 (SNB-75 CNS): 397 nM
TGI (SNB-75 CNS): > 100000 nM
GI50 (NCI-H522 lung): 1520 nM
TGI (NCI-H522 lung): 4240 nM
GI50 (SK-OV-3 ovarian): 709 nM
TGI (SK-OV-3 ovarian): > 100000 nM
GI50 (SW-620 colon): 361 nM
TGI (SW-620 colon): 1570 nM
GI50 (SN12C renal): 1530 nM
TGI (SN12C renal): > 100000 nM
GI50 (SNB-19 CNS): 1450 nM
TGI (SNB-19 CNS): > 100000 nM
GI50 (U251 CNS): 941 nM
TGI (U251 CNS): > 100000 nM
GI50 (786-0 renal): 257 nM
TGI (786-0 renal): 606 nM
GI50 (ACHN renal): 1030 nM
TGI (ACHN renal): > 100000 nM
GI50 (SK-MEL-5 melanoma): 175 nM
TGI (SK-MEL-5 melanoma): 331 nM
GI50 (OVCAR-8 ovarian): 440 nM
TGI (OVCAR-8 ovarian): > 100000 nM
GI50 (UACC-62 melanoma): 545 nM
TGI (UACC-62 melanoma): > 100000 nM
GI50 (SK-MEL-2 melanoma): 832 nM
TGI (SK-MEL-2 melanoma): 8530 nM
GI50 (A549 NSCLC): 469 nM
TGI (A549 NSCLC): > 100000 nM
GI50 (EKVX NSCLC): 543 nM
TGI (EKVX NSCLC): > 100000 nM
GI50 (OVCAR-5 ovarian): 664 nM
TGI (OVCAR-5 ovarian): > 100000 nM
GI50 (MCF7 breast): 388 nM
GI50 (MALME-3M melanoma): 274 nM
TGI (MALME-3M melanoma): 1060 nM
GI50 (HOP-92 NSCLC): 702 nM
TGI (HOP-92 NSCLC): 5950 nM
GI50 (HCT-15 colon): 2230 nM
TGI (HCT-15 colon): > 100000 nM
GI50 (HL-60(TB) leukemia): 2230 nM
TGI (HL-60(TB) leukemia): > 25200 nM
GI50 (RXF 393 renal): 247 nM
TGI (RXF 393 renal): 680 nM
GI50 (NCI-H226 lung): 265 nM
TGI (NCI-H226 lung): 784 nM
GI50 (OVCAR-3 ovarian): 427 nM
TGI (OVCAR-3 ovarian): 4180 nM
GI50 (SF-295 CNS): 912 nM
TGI (SF-295 CNS): > 100000 nM
GI50 (NCI-H460 lung): 3760 nM
TGI (NCI-H460 lung): > 100000 nM
GI50 (K-562 leukemia): 3180 nM
TGI (K-562 leukemia): > 100000 nM
GI50 (PC-3 prostate): 785 nM
TGI (PC-3 prostate): > 100000 nM
GI50 (RPMI-8226 leukemia): 448 nM
TGI (RPMI-8226 leukemia): 3400 nM
GI50 (NCI/ADR-RES ovarian): 365 nM
TGI (NCI/ADR-RES ovarian): 11600 nM
GI50 (COLO 205 colon): 224 nM
TGI (COLO 205 colon): 441 nM
GI50 (DU-145 prostate): 3820 nM
TGI (DU-145 prostate): > 100000 nM
GI50 (HCT-116 colon): 866 nM
TGI (HCT-116 colon): 2490 nM
GI50 (MOLT-4 leukemia): 1160 nM
TGI (MOLT-4 leukemia): > 31400 nM
GI50 (BT-549 breast): 543 nM
TGI (BT-549 breast): > 37100 nM
GI50 (CCRF-CEM leukemia): 2420 nM
TGI (CCRF-CEM leukemia): > 100000 nM
GI50 (HS 578T breast): 477 nM
TGI (HS 578T breast): > 100000 nM
GI50 (SR leukemia): 1640 nM
TGI (SR leukemia): > 28000 nM
GI50 (UO-31 renal): 370 nM
TGI (UO-31 renal): > 100000 nM
GI50 (UACC-257 melanoma): 317 nM
TGI (UACC-257 melanoma): > 100000 nM
GI50 (SF-268 CNS): 440 nM
TGI (SF-268 CNS): > 100000 nM
GI50 (MDA-MB-231 breast): 379 nM
TGI (MDA-MB-231 breast): 1110 nM
GI50 (LOX IMVI melanoma): 269 nM
TGI (LOX IMVI melanoma): 815 nM
GI50 (T-47D breast): 1210 nM
TGI (T-47D breast): 4280 nM
GI50 (NCI-H23 lung): 475 nM
TGI (NCI-H23 lung): 16600 nM
GI50 (IGROV1 ovarian): 1700 nM
TGI (IGROV1 ovarian): > 100000 nM
